From patent US5229378A, “Glycyrrhetic acid derivatives” (Senju Pharmaceutical Co., Ltd., priority 1991, dated 1993)

Columns and labels:
[1] = system: formalin-induced mouse paw edema; test: Antiinflammatory activity assay, mouse paw edema test (formalin); type: in vivo, male ddy mice; details: 200 mg orally, 1 hour before 0.05 ml of 0.75% formalin into right hind paw
Description: The antiinflammatory activity of the compound of the invention was assayed by the mouse paw edema test. The experiment was performed in groups of 6 male ddy mice weighting 20 g-25 g. The volume of the right hind paw of each mouse was measured with a plethysmograph and 200 mg of the compound of the invention was orally administered. After 1 hour, 0.05 ml of 0.75% formalin as a phlogistic agent was injected subcutaneously into the dorsum of the right hind paw and the foot volume was measured at timed intervals. The edema rate and the percent inhibition was calculated from the values found. [formula]

[2] = system: lipid peroxide (LPO) in rat brain homogenate; test: Antioxidant activity assay by the method of Stocks (lipid peroxide in brain homogenate, TBA method); type: biochemical, male Wistar rats; details: LPO as MDA per mg protein, 37° C., 60 minutes
Description: The antioxidant activity of the compound of the invention was assayed by the method of Stocks.
This experiment was performed using male Wistar rats (about 10 weeks old). After perfusion for removal of blood from the brain, the brain tissue was removed and homogenized in 4 volumes of ice-cooled 0.1M phosphate-NaCl buffer (pH 7.4). The homogenate was centrifuged at 1000×g for 10 minutes and the supernatant was taken. The brain homogenate was diluted with 10 volumes of phosphate-NaCl buffer and a 500 μl portion of the dilution was incubated at 37° C. for 60 minutes. The reaction was quenched by pouring the incubate in ice-water and 490 μl of 0.1M phosphate-NaCl buffer was added. The amount of lipid peroxide (LPO) was determined by the TBA method. The amount of LPO was expressed in the amount of malondialdehyde (MDA) per mg protein. The amount of protein was determined by the method of Lowry.

Structure (SMILES)	% Inhibition ([1]; Hour 1) [%]	% Inhibition ([1]; Hour 4) [%]	% Inhibition ([2]; Dosage 1 × 10^-3 M) [%]	% Inhibition ([2]; Dosage 1 × 10^-4 M) [%]
COC(=O)[C@@]1(C)CC[C@]2(C)CC[C@]3(C)C(=CC(=O)[C@@H]4[C@@]5(C)CC[C@H](OP(=O)(O)OC6=C(O)[C@@H]([C@@H](O)CO)OC6=O)C(C)(C)[C@@H]5CC[C@]43C)[C@@H]2C1 [(1), Methyl 3-(L-ascorbyl-2-phosphoryl)-glycyrrhetinate]	36.36	37.84	95.3	87.6
CCOC(=O)[C@@]1(C)CC[C@]2(C)CC[C@]3(C)C(=CC(=O)[C@@H]4[C@@]5(C)CC[C@H](OP(=O)(O)OC6=C(O)[C@@H]([C@@H](O)CO)OC6=O)C(C)(C)[C@@H]5CC[C@]43C)[C@@H]2C1 [(2), Ethyl 3-(L-ascorbyl-2-phosphoryl)-glycyrrhetinate]	18.84	28.72	95.4	44.7
CCCCCCOC(=O)[C@@]1(C)CC[C@]2(C)CC[C@]3(C)C(=CC(=O)[C@@H]4[C@@]5(C)CC[C@H](OP(=O)(O)OC6=C(O)[C@@H]([C@@H](O)CO)OC6=O)C(C)(C)[C@@H]5CC[C@]43C)[C@@H]2C1 [(3), Hexyl 3-(L-ascorbyl-2-phosphoryl)-glycyrrhetinate potassium]	22.50	22.07	94.8	82.5
CCCCCCCCCCCCOC(=O)[C@@]1(C)CC[C@]2(C)CC[C@]3(C)C(=CC(=O)[C@@H]4[C@@]5(C)CC[C@H](OP(=O)(O)OC6=C(O)[C@@H]([C@@H](O)CO)OC6=O)C(C)(C)[C@@H]5CC[C@]43C)[C@@H]2C1 [(4), Lauryl 3-(L-ascorbyl-2-phosphoryl)-glycyrrhetinate potassium]	49.03	50.57		
CCCCCCCCCCCCCCCCCCOC(=O)[C@@]1(C)CC[C@]2(C)CC[C@]3(C)C(=CC(=O)[C@@H]4[C@@]5(C)CC[C@H](OP(=O)(O)OC6=C(O)[C@@H]([C@@H](O)CO)OC6=O)C(C)(C)[C@@H]5CC[C@]43C)[C@@H]2C1 [(5), Stearyl 3-(L-ascorbyl-2-phosphoryl)-glycyrrhetinate potassium]	31.02	34.42		
CC1(C)[C@@H](O)CC[C@]2(C)[C@H]3C(=O)C=C4[C@@H]5C[C@@](C)(C(=O)O)CC[C@]5(C)CC[C@@]4(C)[C@]3(C)CC[C@@H]12 [(6), Glycyrrhetic acid]	16.28	25.37		
